Source: patent US12599136B2, “Substituted isophthalic acid diamides and their use as herbicides” (Bayer Aktiengesellschaft, priority 2020, dated 2026)

Experiments:
Format in all cases: in vivo
Abutilon theophrasti [1] = assay: Pre-emergence herbicidal action against ABUTH; details: for Herbicidal action against ABUTH: comparative experiment, pre-emergence
Outline: (§1)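 Herbicidal effect was assessed 3 weeks after treatment by visual comparison with untreated controls, 100% denoting dead plants. Aqueous WP or EC preparations had been applied at 600 to 800 l/ha with 0.2% wetting agent to the soil covering freshly sown seeds.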

Alopecurus myosuroides [2] = assay: Pre-emergence herbicidal action against ALOMY; details: for Pre-emergence action against ALOMY: visual score after 3 weeks vs untreated controls; for Herbicidal action against ALOMY: comparative experiment, pre-emergence
Outline: as §1

Amaranthus retroflexus [3] = assay: Pre-emergence herbicidal action against AMARE; details: visual score after 3 weeks vs untreated controls
Outline: as §1

Avena fatua = assay: Pre-emergence herbicidal action against AVEFA; details: for Pre-emergence action against AVEFA: visual score after 3 weeks vs untreated controls; for Herbicidal action against AVEFA: comparative experiment, pre-emergence
Outline: as §1

Echinochloa crus-galli [4] = assay: Pre-emergence herbicidal action against ECHCG; details: for Herbicidal action against ECHCG: comparative experiment, pre-emergence
Outline: as §1

Matricaria inodora [5] = assay: Pre-emergence herbicidal action against MATIN; details: visual score after 3 weeks vs untreated controls
Outline: as §1

Digitaria sanguinalis [6] = assay: Pre-emergence herbicidal action against DIGSA
Outline: as §1

Lolium rigidum = assay: Pre-emergence herbicidal action against LOLRI; details: 80 g/ha
Text: Seeds of monocotyledonous and dicotyledonous weed plants and crop plants are laid out in sandy loam soil in wood-fiber pots and covered with soil. The compounds of the invention, formulated in the form of wettable powders (WP) or as emulsion concentrates (EC), are then applied to the surface of the covering soil in the form of an aqueous suspension or emulsion at a water application rate equivalent to 600 to 800 l/ha, with addition of 0.2% wetting agent. After the treatment, the pots are placed in a greenhouse and kept under good growth conditions for the trial plants. The damage to the test plants is scored visually after a test period of 3 weeks by comparison with untreated controls (herbicidal activity in percent (%): 100% activity=the plants have died, 0% activity=like control plants). […] The tables below illustrate, in an illustrative manner, the post-emergence herbicidal action of the compounds of the invention, the herbicidal activity being stated in percent.

Polygonum convolvulus = assay: Pre-emergence herbicidal action against POLCO; details: 80 g/ha
Outline: as §1

Setaria viridis [7] = assay: Pre-emergence herbicidal action against SETVI; details: for Herbicidal action against SETVI: comparative experiment
Outline: as §1

Veronica persica = assay: Pre-emergence herbicidal action against VERPE; details: 80 g/ha
Outline: as §1

Viola tricolor [8] = assay: Pre-emergence herbicidal action against VIOTR
Outline: as §1

Abutilon theophrasti [9] = assay: Post-emergence herbicidal action against ABUTH
Outline: (§2)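 Herbicidal effect was scored visually in percent after about 3 weeks in the greenhouse. Plants had been raised in sandy loam and treated post-emergence at the one-leaf stage with formulated compound at 600 to 800 l/ha water plus 0.2% wetting agent.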

Alopecurus myosuroides [10] = assay: Post-emergence herbicidal action against ALOMY
Outline: as §2

Amaranthus retroflexus [11] = assay: Post-emergence herbicidal action against AMARE; details: visual assessment about 3 weeks after treatment
Outline: as §2

Echinochloa crus-galli [12] = assay: Post-emergence herbicidal action against ECHCG; details: visual assessment about 3 weeks after treatment
Outline: as §2

Matricaria inodora [13] = assay: Post-emergence herbicidal action against MATIN; details: for Post-emergence action against MATIN in %: visual assessment about 3 weeks after treatment
Outline: as §2

Pharbitis purpurea = assay: Post-emergence herbicidal action against PHBPU; details: for Post-emergence action against PHBPU in %: visual assessment about 3 weeks after treatment
Outline: as §2

Digitaria sanguinalis [14] = assay: Post-emergence herbicidal action against DIGSA
Description: Seeds of monocotyledonous and dicotyledonous weed and crop plants are laid out in sandy loam soil in wood-fiber pots, covered with soil and cultivated in a greenhouse under good growth conditions. 2 to 3 weeks after sowing, the test plants are treated at the one-leaf stage. The compounds of the invention, formulated in the form of wettable powders (WP) or as emulsion concentrates (EC), are then sprayed onto the green parts of the plants in the form of an aqueous suspension or emulsion at a water application rate equivalent to 600 to 800 l/ha, with addition of 0.2% wetting agent. After the test plants have been left to stand in the greenhouse under optimal growth conditions for about 3 weeks, the action of the preparations is assessed visually in comparison to untreated controls (herbicidal action in percent (%): 100% activity=the plants have died, 0% activity=like control plants). […] The tables below illustrate, in an illustrative manner, the post-emergence herbicidal action of the compounds of the invention, the herbicidal activity being stated in percent.

Setaria viridis [15] = assay: Post-emergence herbicidal action against SETVI; details: for Post-emergence action against SETVI in %: visual assessment about 3 weeks after treatment
Outline: as §2

Viola tricolor [16] = assay: Post-emergence herbicidal action against VIOTR
Outline: as §2

[17] = 80 g/ha, visual score after 3 weeks vs untreated controls
[18] = comparative experiment, 5 g a.i./ha

For CN(C)C(=O)c1c(C(F)F)ccc(C(=O)Nc2nnnn2C)c1Cl [Example 1-154], the “Pre-emergence action against ABUTH” value (Abutilon theophrasti [1]; [17]) was 100%, the “Herbicidal action against ABUTH” value (Abutilon theophrasti [1]; 20 g a.i./ha) was 100 and the “Herbicidal action against ABUTH” value (Abutilon theophrasti [1]; 80 g a.i./ha) was 100. The “Pre-emergence action against ALOMY” value (Alopecurus myosuroides [2]; 20 g/ha) was 90%, the “Pre-emergence action against ALOMY” value (Alopecurus myosuroides [2]; 80 g/ha) was 100% and the “Herbicidal action against ALOMY” value (Alopecurus myosuroides [2]; 20 g a.i./ha) was 70. For the same compound, the “Herbicidal action against ALOMY” value (Alopecurus myosuroides [2]; 80 g a.i./ha) was 100, the “Pre-emergence action against AMARE” value (Amaranthus retroflexus [3]; 20 g/ha) was 90% and the “Pre-emergence action against AMARE” value (Amaranthus retroflexus [3]; 80 g/ha) was 100%. The “Pre-emergence action against AVEFA” value (Avena fatua; 20 g/ha) was 80%, the “Pre-emergence action against AVEFA” value (Avena fatua; 80 g/ha) was 100% and the “Herbicidal action against AVEFA” value (Avena fatua; 20 g a.i./ha) was 50. The “Herbicidal action against AVEFA” value (Avena fatua; 80 g a.i./ha) was 100, the “Pre-emergence action against ECHCG” value (Echinochloa crus-galli [4]; [17]) was 100% and the “Herbicidal action against ECHCG” value (Echinochloa crus-galli [4]; 20 g a.i./ha) was 80. The “Herbicidal action against ECHCG” value (Echinochloa crus-galli [4]; 80 g a.i./ha) was 100, the “Pre-emergence action against MATIN” value (Matricaria inodora [5]; 20 g/ha) was 80% and the “Pre-emergence action against MATIN” value (Matricaria inodora [5]; 80 g/ha) was 90%. For the same compound, the “Pre-emergence action against DIGSA” value (Digitaria sanguinalis [6]; 20 g/ha) was 100%, the “Pre-emergence action against DIGSA” value (Digitaria sanguinalis [6]; 80 g/ha) was 100% and the “Pre-emergence action against LOLRI” value (Lolium rigidum) was 90%. The “Pre-emergence action against POLCO” value (Polygonum convolvulus) was 80%, the “Pre-emergence action against SETVI” value (Setaria viridis [7]; 80 g/ha) was 100% and the “Herbicidal action against SETVI” value (Setaria viridis [7]; 20 g a.i./ha) was 90. For the same compound, the “Herbicidal action against SETVI” value (Setaria viridis [7]; 80 g a.i./ha) was 100, the “Pre-emergence action against VERPE” value (Veronica persica) was 80% and the “Pre-emergence action against VIOTR” value (Viola tricolor [8]; 80 g/ha) was 100%. The “Herbicidal action against VIOTR” value (Viola tricolor [8]; comparative experiment, 80 g a.i./ha) was 100, the “Post-emergence action against ABUTH” value (Abutilon theophrasti [9]; 5 g/ha) was 100% and the “Post-emergence action against ABUTH” value (Abutilon theophrasti [9]; 20 g/ha) was 100%. For the same compound, the “Herbicidal action against ABUTH” value (Abutilon theophrasti [9]; [18]) was 100, the “Post-emergence action against ALOMY” value (Alopecurus myosuroides [10]; 5 g/ha) was 90% and the “Post-emergence action against ALOMY” value (Alopecurus myosuroides [10]; 20 g/ha) was 100%. For the same compound, the “Herbicidal action against ALOMY” value (Alopecurus myosuroides [10]; [18]) was 90, the “Post-emergence action against AMARE in %” value (Amaranthus retroflexus [11]; 5 g/ha) was 90% and the “Post-emergence action against AMARE in %” value (Amaranthus retroflexus [11]; 20 g/ha) was 100%. The “Post-emergence action against ECHCG in %” value (Echinochloa crus-galli [12]; 5 g/ha) was 90%, the “Post-emergence action against ECHCG in %” value (Echinochloa crus-galli [12]; 20 g/ha) was 90% and the “Post-emergence action against MATIN in %” value (Matricaria inodora [13]; 5 g/ha) was 80%. The “Post-emergence action against MATIN in %” value (Matricaria inodora [13]; 20 g/ha) was 90%, the “Herbicidal action against MATIN” value (Matricaria inodora [13]; [18]) was 80 and the “Post-emergence action against PHBPU in %” value (Pharbitis purpurea; 5 g/ha) was 80%. For the same compound, the “Post-emergence action against PHBPU in %” value (Pharbitis purpurea; 20 g/ha) was 90%, the “Herbicidal action against PHBPU” value (Pharbitis purpurea; [18]) was 80 and the “Post-emergence action against DIGSA in %” value (Digitaria sanguinalis [14]; 5 g/ha) was 90%. The “Post-emergence action against DIGSA in %” value (Digitaria sanguinalis [14]; 20 g/ha) was 90%, the “Post-emergence action against SETVI in %” value (Setaria viridis [15]; 5 g/ha) was 100% and the “Post-emergence action against SETVI in %” value (Setaria viridis [15]; 20 g/ha) was 100%. The “Herbicidal action against SETVI” value (Setaria viridis [15]; [18]) was 100, the “Post-emergence action against VIOTR in %” value (Viola tricolor [16]; 5 g/ha) was 100% and the “Post-emergence action against VIOTR in %” value (Viola tricolor [16]; 20 g/ha) was 100%. The “Herbicidal action against VIOTR” value (Viola tricolor [16]; [18]) was 100.
